pIC50: −log10 of the molar value.
How the values were obtained:
[1] = molecular target: T1, Glyceraldehyde-3-phosphate dehydrogenase (Homo sapiens, UniProt P04406); test: Inhibition of GAPDH (unknown origin) measured after 1 hr
Target sequence in this assay (P04406 whole entry): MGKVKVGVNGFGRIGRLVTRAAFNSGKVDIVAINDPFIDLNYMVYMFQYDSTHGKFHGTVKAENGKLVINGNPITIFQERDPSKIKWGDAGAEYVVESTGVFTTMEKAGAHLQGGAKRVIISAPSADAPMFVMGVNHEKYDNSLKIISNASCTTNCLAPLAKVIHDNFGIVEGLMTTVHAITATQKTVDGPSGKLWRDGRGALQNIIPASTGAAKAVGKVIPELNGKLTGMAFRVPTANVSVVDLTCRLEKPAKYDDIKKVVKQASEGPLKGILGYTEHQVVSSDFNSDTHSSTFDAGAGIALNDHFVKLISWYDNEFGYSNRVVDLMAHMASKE

Saccharomyces cerevisiae = test: Irreversible inhibition of yeast GAPDH holoenzyme
[2] = molecular target: T1, Glyceraldehyde-3-phosphate dehydrogenase; test: Inhibition of human GAPDH
Target sequence in this assay (P04406 2-335 limits assumed): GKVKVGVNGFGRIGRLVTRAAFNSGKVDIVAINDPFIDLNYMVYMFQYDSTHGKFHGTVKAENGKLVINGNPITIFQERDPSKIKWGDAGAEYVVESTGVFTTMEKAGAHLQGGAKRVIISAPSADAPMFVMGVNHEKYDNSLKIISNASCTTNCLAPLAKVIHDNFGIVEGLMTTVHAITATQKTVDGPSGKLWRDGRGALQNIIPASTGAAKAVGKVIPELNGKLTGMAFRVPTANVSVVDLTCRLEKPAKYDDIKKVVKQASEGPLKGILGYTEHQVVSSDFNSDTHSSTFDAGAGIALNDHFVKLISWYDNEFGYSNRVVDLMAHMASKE

[3] = molecular target: T1, Glyceraldehyde-3-phosphate dehydrogenase; test: Irreversible inhibition of GAPDH (unknown origin) assessed as ratio of Kinact/Ki at slow phase
Target sequence in this assay (P04406 2-335 limits assumed): as above

[4] = molecular target: T1, Glyceraldehyde-3-phosphate dehydrogenase; test: Irreversible inhibition of GAPDH (unknown origin) assessed as ratio of Kinact/Ki at fast phase
Target sequence in this assay (P04406 2-335 limits assumed): as above

[5] = molecular target: Glyceraldehyde-3-phosphate dehydrogenase (Oryctolagus cuniculus) (UniProt P46406); test: Inhibition of rabbit muscle GAPDH at 0.5 mM incubated for 24 hrs relative to control
Chain of Glyceraldehyde-3-phosphate dehydrogenase (Oryctolagus cuniculus) (P46406 whole entry, looked up): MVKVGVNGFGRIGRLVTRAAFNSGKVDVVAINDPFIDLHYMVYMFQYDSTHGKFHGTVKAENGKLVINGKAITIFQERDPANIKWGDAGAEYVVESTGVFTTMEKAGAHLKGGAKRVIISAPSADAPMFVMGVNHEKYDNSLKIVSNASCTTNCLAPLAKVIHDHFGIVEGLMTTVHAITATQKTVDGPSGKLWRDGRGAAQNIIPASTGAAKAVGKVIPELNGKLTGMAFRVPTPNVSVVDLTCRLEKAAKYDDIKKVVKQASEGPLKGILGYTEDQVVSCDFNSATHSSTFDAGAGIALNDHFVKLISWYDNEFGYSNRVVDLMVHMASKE

[6] = molecular target: T1, Glyceraldehyde-3-phosphate dehydrogenase; test: Irreversible inhibition of GAPDH (unknown origin) assessed as ratio of Kinact/Ki
Target sequence in this assay (P04406 2-335 limits assumed): as the sequence (P04406 2-335 limits assumed) above

CCCCCC(O)/C=C/C=O (stereo not given) [4-HYDROXYNON-2-ENAL]
pIC50 [1]: 4.30

O=C(CBr)P(=O)(O)O
K (Saccharomyces cerevisiae): 5.4 10^4/M/s
K [2]: 3.5 10^4/M/s

COC(=O)/C=C/C(=O)OC
Ratio [3]: 10.9 M⁻¹ s⁻¹
Ratio [4]: 18.3 M⁻¹ s⁻¹

O=C(O)/C=C/C(=O)O
inhibition [5]: 20%

O=C(CCl)P(=O)(O)O
K (Saccharomyces cerevisiae): 2.8 10^4/M/s

C=CC(C)=O
Ratio [6]: 128 M⁻¹ s⁻¹

CCC(O)/C=C/C=O (stereo not given)
pIC50 [1]: 4.41

C=CC#N
Ratio [6]: 9.2 M⁻¹ s⁻¹

From ChEMBL document CHEMBL5230112, “Covalent inhibitors of GAPDH: From unspecific warheads to selective compounds” (Eur J Med Chem, 2020)
